Source: patent publication US20220281846A1, “COMPOUNDS AND COMPOSITIONS FOR THE TREATMENT OF RESPIRATORY DISEASES” (THE UNIVERSITY OF MELBOURNE, priority 2018, published 2022)
Where “and” joins values, the source holds several entries; their conditions need not be identical. Identical values can stand only once. Marks after values point to notes of the source that are not given here.

Assays:
[1] = In vitro metabolic stability, human liver microsomes; format: in vitro ADME
Method: Human Microsomal Stability of Compounds of the Invention
In Vitro Metabolic Stability
Incubation: The metabolic stability assay was performed by incubating each test compound in human liver microsomes at 37° C. and a protein concentration of 0.4 mg/mL. The metabolic reaction was initiated by the addition of an NADPH-regenerating system and quenched at various time points over a 60 minute incubation period by the addition of acetonitrile containing diazepam as internal standard. Control samples (containing no NADPH) were included (and quenched at 2, 30 and 60 minutes) to monitor for potential degradation in the absence of cofactor. The human liver microsomes used in this experiment were supplied by XenoTech, lot #1410230. Microsomal incubations were performed at a substrate concentration of 1 μM. Data analysis: Species scaling factors from Ring et al. (2011) JPharmSci, 100:4090-4110 were used to convert the in vitro CLint (μL/min/mg) to an in vivo CLint(mL/min/kg). Hepatic blood clearance and the corresponding hepatic extraction ratio (EH) were calculated using the well stirred model of hepatic extraction in each species, according to the “in vitro T1/2” approach described in Obach (1999) DrugMetab. Dispos. 27:1350-1359. The EH was then used to classify compounds as low(<0.3), intermediate (0.3-0.7), high (0.7-0.95) or very high (>0.95) extraction compounds. Predicted in vivo clearance values have not been corrected for microsomal or plasma protein binding. Species scaling calculations are based on two assumptions: 1) NADPH-dependent oxidative metabolism predominates over other metabolic routes (i.e. direct conjugative metabolism, reduction, hydrolysis, etc.), and; 2) rates of metabolism and enzyme activities in vitro are truly reflective of those that exist in vivo. If significant non-NADPH-mediated degradation is observed in microsome control samples, then assumption (1) is invalid and predicted clearance parameters are therefore not reported.

[2] = Mouse pharmacokinetics, IV and oral administration; format: in vivo; conditions: male C57BL/6 mice
Method: PF670462 (2HCl.0.4 mol. eq. isopropanol) and ZH3-138 (unionised) were administered to male C57BL/6 mice by IV (3 mg/kg) or orally (10 mg/kg). IV administration was achieved by bolus injection into the tail vein of mice using 1 mL syringe with 25G×1″ needle at a volume of 3 mL/kg. Oral administration was achieved by gavage needle at a volume of 3 mL/kg.
Intravenous (IV) and oral formulations were prepared using the same method. On the day of dosing, each of the solid compound was dissolved in DMSO to which an aqueous solution containing 10% Captisol was added. Hydrochloric acid (1 M) was used to modify pH for the formulation of ZH3-138 with the purpose of solubilising the compound (see Section B for the final pH of each formulation). The formulations of each compound were thoroughly vortexed, producing colourless solutions for all three compounds.
The systemic exposure of PF670462 and ZH3-138 was studied in non-fasted male C57BL/6 mice weighing 19.8-26.8 g. Mice had access to food and water ad libitum throughout the pre- and post-dose sampling period.
Compounds were dosed to mice by bolus injection into the lateral tail vein (3 mL/kg) for IV administration and by gavage (3 mL/kg) for oral administration. Following IV and oral administration, blood samples were collected up to 24 h (n=3 mice per time point) with a maximum of three samples from each mouse. Samples were collected via submandibular bleed (approximately 120 μL; conscious sampling). No urine samples were collected as mice were housed in bedded cages.
Blood was collected into polypropylene Eppendorf tubes containing heparin as anticoagulant and stabilisation cocktail (containing Complete® (a protease inhibitor cocktail) and potassium fluoride) to minimise the potential for ex vivo compound degradation in blood/plasma samples.
Once collected, blood samples were centrifuged immediately, supernatant plasma was removed, and stored at −80° C. until analysis by LC-MS.
Plasma samples were quantified against calibration standards prepared by spiking blank mouse plasma (50 μL) with solution standards (10 μL) obtained by diluting a stock solution of test compound (1 mg/mL in DMSO) with 50% acetonitrile in water. Diazepam (10 μL of 5 μg/mL in 50% acetonitrile/water) was added to all plasma calibration standards and samples as an internal standard (IS). The extraction of the test compound and IS from plasma was conducted using protein precipitation with acetonitrile. Protein precipitation was carried out by the addition of acetonitrile followed by vortexing and centrifugation (10,000 rpm) for 3 minutes to obtain supernatant for analysis using the LC-MS conditions described in Table 7.

SMILES: Nc1nccc(-c2c(-c3ccc(F)cc3)ncn2C2CCCCC2)n1 [PF670462, reference compound]
- Predicted EH (hepatic extraction ratio) ([1]; human liver microsomes): 0.88
- CLint, in vitro ([1]; human liver microsomes, 1 μM): 192 μL/min/mg protein
- T1/2 ([1]; human liver microsomes, 1 μM, 0.4 mg/mL protein, 37° C.): 9 min
- Predicted CLint, in vivo ([1]; scaled from human liver microsomes): 158 mL/min/kg
- Predicted CLblood ([1]; scaled from human liver microsomes, well stirred model): 18 mL/min/kg
- apparent blood clearance [2]: moderate
- apparent blood volume of distribution [2]: moderate
- time post-dose for which plasma concentration was measurable (above LLQ) ([2]; 24 h sampling period): up to 4 h
- Plasma Concentration, Mean ([2]; IV 2.42 mg/kg, 0.017 h): 15500 nM
- Plasma Concentration, Individual ([2]; IV 2.42 mg/kg, 0.017 h, 2.42 mg/kg): 18.4 µM and 10.9 µM and 17.3 µM
- Plasma Concentration, Mean ([2]; IV 2.42 mg/kg, 0.033 h): 8140 nM
- Plasma Concentration, Individual ([2]; IV 2.42 mg/kg, 0.033 h, 2.42 mg/kg): 8.83 µM and 8.03 µM and 7.57 µM
- Plasma Concentration, Mean ([2]; IV 2.42 mg/kg, 0.083 h): 6090 nM
- Plasma Concentration, Individual ([2]; IV 2.42 mg/kg, 0.083 h, 2.42 mg/kg): 5.58 µM and 5.99 µM and 6.70 µM
- Plasma Concentration, Mean ([2]; IV 2.42 mg/kg, 0.25 h): 2480 nM
- Plasma Concentration, Individual ([2]; IV 2.42 mg/kg, 0.25 h, 2.42 mg/kg): 2.38 µM and 2.32 µM and 2.75 µM
- Plasma Concentration, Mean ([2]; IV 2.42 mg/kg, 0.5 h): 851 nM
- Plasma Concentration, Individual ([2]; IV 2.42 mg/kg, 0.5 h, 2.42 mg/kg): 0.900 µM and 0.566 µM and 1.09 µM
- Plasma Concentration, Mean ([2]; IV 2.42 mg/kg, 1.0 h): 190 nM
- Plasma Concentration, Individual ([2]; IV 2.42 mg/kg, 1.0 h, 2.42 mg/kg): 0.193 µM and 0.165 µM and 0.212 µM
- Plasma Concentration, Mean ([2]; IV 2.42 mg/kg, 2.0 h): 253 nM
- Plasma Concentration, Individual ([2]; IV 2.42 mg/kg, 2.0 h, 2.42 mg/kg): 0.0263 µM and 0.0207 µM and 0.0290 µM
- Plasma Concentration, Mean ([2]; IV 2.42 mg/kg, 4.0 h): 2.09 nM
- Plasma Concentration, Individual ([2]; IV 2.42 mg/kg, 4.0 h, values only marginally below the LLQ, 2.42 mg/kg): 0.00222 ^a μM and 0.00134 ^a μM and 0.0027 ^a μM
- Plasma Concentration, Mean ([2]; oral 10.1 mg/kg, 0.25 h): 1250 nM
- Plasma Concentration, Individual ([2]; oral 10.1 mg/kg, 0.25 h, 10.1 mg/kg): 1.45 µM and 0.873 µM and 1.44 µM
- Plasma Concentration, Mean ([2]; oral 10.1 mg/kg, 0.50 h): 941 nM
- Plasma Concentration, Individual ([2]; oral 10.1 mg/kg, 0.50 h, 10.1 mg/kg): 1.95 µM and 0.508 µM and 0.366 µM
- Plasma Concentration, Mean ([2]; oral 10.1 mg/kg, 1.0 h): 292 nM
- Plasma Concentration, Individual ([2]; oral 10.1 mg/kg, 1.0 h, 10.1 mg/kg): 0.260 µM and 0.340 µM and 0.277 µM
- Plasma Concentration, Mean ([2]; oral 10.1 mg/kg, 2.0 h): 103 nM
- Plasma Concentration, Individual ([2]; oral 10.1 mg/kg, 2.0 h, 10.1 mg/kg): 0.140 µM and 0.0641 µM and 0.104 µM
- Plasma Concentration, Mean ([2]; oral 10.1 mg/kg, 4.0 h): 16.5 nM
- Plasma Concentration, Individual ([2]; oral 10.1 mg/kg, 4.0 h, 10.1 mg/kg): 0.0318 µM and 0.0106 µM and 0.00703 µM
- apparent half-life ([2]; plasma): approximately 0.5 h
